# Experimental data from PMC6917776, “Discovery of a chemical probe for PRDM9” (Nature Communications, 2019).
# Assays:
# [1] = test system: MDA-MB-436; test: CelltiterGlo viability cell assay; assay type: cell-based; conditions: MDA MB436, 6 day
# Protocol: (§1) Supplementary Figure 13. […] Viability of
# (§2) (a) Multiple Myeloma lines and (b) Breast Cancer cell lines following 3 or 6 days treatment with […]
# (§3) manufacturer’s instructions as described in the Supplementary methods. Data are normalized to DMSO control. N=3 biological replicates, +/- SEM. Source data are provided as a Source Data […]
# (§4) CelltiterGlo viability cell assay
# (§5) Cells were seeded in 96 well plates at per-well densities of 10000 (MDA-MB436, ATCC-HTB130), 15000 (8226, kind gift from Rodger Tiedemann, Princess Margaret Cancer Centre), […]
# (§6) kind gift from Rodger Tiedemann, Princess Margaret Cancer Centre) and 50000 (CAL851, kind gift from Mathieu Lupien, Princess Margaret Cancer Centre) and were treated at increasing concentrations of compounds ranging from 0.01 μM to 30 μM and assessed for proliferation using CelltiterGlo (Promega) following manufacturer’s instructions, as readout on days 3 and 6 as indicated. All cell lines were mycoplasma negative, as determined by MycoAlert™ Mycoplasma Detection Kit(Lonza). […]
# [2] = test system: CAL851; test: CelltiterGlo viability cell assay; assay type: cell-based
# Protocol: as §1, §2, §3, §4, §5, §6
compound,measurement,setting,value
COc1cc(OC)cc(-c2noc(N3CCN(C)C4(CCN(c5ccccc5)CC4)C3)n2)c1 [MRK-740N],viability Replicate 2,[1]; 0.01 uM,100.02
same,viability Replicate 3,[1]; 0.01 uM,97.33
same,viability Average,[1]; 0.03 uM,104.88
same,viability Replicate 1,[1]; 0.03 uM,112.01
same,viability Replicate 2,[1]; 0.03 uM,99.73
same,viability Replicate 3,[1]; 0.03 uM,102.91
same,viability Average,[1]; 0.1 uM,102.74
same,viability Replicate 1,[1]; 0.1 uM,107.88
same,viability Replicate 2,[1]; 0.1 uM,92.08
same,viability Replicate 3,[1]; 0.1 uM,108.25
same,viability Average,[1]; 0.3 uM,105.71
same,viability Replicate 1,[1]; 0.3 uM,111.04
same,viability Replicate 2,[1]; 0.3 uM,94.90
same,viability Replicate 3,[1]; 0.3 uM,111.19
same,viability Average,[1]; 1 uM,105.76
same,viability Replicate 1,[1]; 1 uM,115.22
same,viability Replicate 2,[1]; 1 uM,95.99
same,viability Replicate 3,[1]; 1 uM,106.08
same,viability Average,[1]; 3 uM,103.68
same,viability Replicate 1,[1]; 3 uM,104.50
same,viability Replicate 2,[1]; 3 uM,94.30
same,viability Replicate 3,[1]; 3 uM,112.23
same,viability Average,[1]; 9.5 uM,88.40
same,viability Replicate 1,[1]; 9.5 uM,98.62
same,viability Replicate 2,[1]; 9.5 uM,74.13
same,viability Replicate 3,[1]; 9.5 uM,92.44
same,viability Average,[1]; 30 uM,37.17
same,viability Replicate 1,[1]; 30 uM,41.30
same,viability Replicate 2,[1]; 30 uM,30.92
same,viability Replicate 3,[1]; 30 uM,39.29
same,viability Average,"[2]; CAL851, 3 day, 0.01 uM",102.43
same,viability Replicate 1,"[2]; CAL851, 3 day, 0.01 uM",104.57
same,viability Replicate 2,"[2]; CAL851, 3 day, 0.01 uM",100.53
same,viability Replicate 3,"[2]; CAL851, 3 day, 0.01 uM",102.20
same,viability Average,"[2]; CAL851, 3 day, 0.03 uM",101.16
same,viability Replicate 1,"[2]; CAL851, 3 day, 0.03 uM",95.74
same,viability Replicate 2,"[2]; CAL851, 3 day, 0.03 uM",100.94
same,viability Replicate 3,"[2]; CAL851, 3 day, 0.03 uM",106.79
same,viability Average,"[2]; CAL851, 3 day, 0.1 uM",104.74
same,viability Replicate 1,"[2]; CAL851, 3 day, 0.1 uM",106.32
same,viability Replicate 2,"[2]; CAL851, 3 day, 0.1 uM",96.40
same,viability Replicate 3,"[2]; CAL851, 3 day, 0.1 uM",111.49
same,viability Average,"[2]; CAL851, 3 day, 0.3 uM",106.71
same,viability Replicate 1,"[2]; CAL851, 3 day, 0.3 uM",111.33
same,viability Replicate 2,"[2]; CAL851, 3 day, 0.3 uM",101.82
same,viability Replicate 3,"[2]; CAL851, 3 day, 0.3 uM",106.99
same,viability Average,"[2]; CAL851, 3 day, 1 uM",96.30
same,viability Replicate 1,"[2]; CAL851, 3 day, 1 uM",98.38
same,viability Replicate 2,"[2]; CAL851, 3 day, 1 uM",96.24
same,viability Replicate 3,"[2]; CAL851, 3 day, 1 uM",94.27
same,viability Average,"[2]; CAL851, 3 day, 3 uM",97.71
same,viability Replicate 1,"[2]; CAL851, 3 day, 3 uM",91.85
same,viability Replicate 2,"[2]; CAL851, 3 day, 3 uM",95.91
same,viability Replicate 3,"[2]; CAL851, 3 day, 3 uM",105.37
same,viability Average,"[2]; CAL851, 3 day, 9.5 uM",95.86
same,viability Replicate 1,"[2]; CAL851, 3 day, 9.5 uM",89.90
same,viability Replicate 2,"[2]; CAL851, 3 day, 9.5 uM",94.75
same,viability Replicate 3,"[2]; CAL851, 3 day, 9.5 uM",102.94
same,viability Average,"[2]; CAL851, 3 day, 30 uM",88.50
same,viability Replicate 1,"[2]; CAL851, 3 day, 30 uM",89.70
same,viability Replicate 2,"[2]; CAL851, 3 day, 30 uM",92.97
same,viability Replicate 3,"[2]; CAL851, 3 day, 30 uM",82.83
same,viability Average,"[2]; CAL851, 6 day, 0.01 uM",99.23
same,viability Replicate 1,"[2]; CAL851, 6 day, 0.01 uM",100.50
same,viability Replicate 2,"[2]; CAL851, 6 day, 0.01 uM",95.18
same,viability Replicate 3,"[2]; CAL851, 6 day, 0.01 uM",102.02
same,viability Average,"[2]; CAL851, 6 day, 0.03 uM",103.06
same,viability Replicate 1,"[2]; CAL851, 6 day, 0.03 uM",101.15
same,viability Replicate 2,"[2]; CAL851, 6 day, 0.03 uM",96.95
same,viability Replicate 3,"[2]; CAL851, 6 day, 0.03 uM",111.07
same,viability Average,"[2]; CAL851, 6 day, 0.1 uM",96.92
same,viability Replicate 1,"[2]; CAL851, 6 day, 0.1 uM",94.85
same,viability Replicate 2,"[2]; CAL851, 6 day, 0.1 uM",96.64
same,viability Replicate 3,"[2]; CAL851, 6 day, 0.1 uM",99.28
same,viability Average,"[2]; CAL851, 6 day, 0.3 uM",101.38
same,viability Replicate 1,"[2]; CAL851, 6 day, 0.3 uM",95.47
same,viability Replicate 2,"[2]; CAL851, 6 day, 0.3 uM",94.74
same,viability Replicate 3,"[2]; CAL851, 6 day, 0.3 uM",113.94
same,viability Average,"[2]; CAL851, 6 day, 1 uM",102.45
same,viability Replicate 1,"[2]; CAL851, 6 day, 1 uM",100.66
same,viability Replicate 2,"[2]; CAL851, 6 day, 1 uM",100.26
same,viability Replicate 3,"[2]; CAL851, 6 day, 1 uM",106.42
same,viability Average,"[2]; CAL851, 6 day, 3 uM",100.92
same,viability Replicate 1,"[2]; CAL851, 6 day, 3 uM",96.08
same,viability Replicate 2,"[2]; CAL851, 6 day, 3 uM",95.38
same,viability Replicate 3,"[2]; CAL851, 6 day, 3 uM",111.29
same,viability Average,"[2]; CAL851, 6 day, 9.5 uM",96.88
same,viability Replicate 1,"[2]; CAL851, 6 day, 9.5 uM",95.12
same,viability Replicate 2,"[2]; CAL851, 6 day, 9.5 uM",99.49
same,viability Replicate 3,"[2]; CAL851, 6 day, 9.5 uM",96.04
same,viability Average,"[2]; CAL851, 6 day, 30 uM",87.30
same,viability Replicate 1,"[2]; CAL851, 6 day, 30 uM",87.23
same,viability Replicate 2,"[2]; CAL851, 6 day, 30 uM",87.15
same,viability Replicate 3,"[2]; CAL851, 6 day, 30 uM",87.51
